Source: article PMC3701955 (Bioorganic & medicinal chemistry, 2012)
Read-outs that look alike come from different tables or passages of the source.

Columns and labels:
[1] = assay type: in vivo; settings: female Sprague–Dawley rats, iv; for Biodistribution of radioactivity, Liver: mean ± SD
[2] = target: T1, OTR of the CNS (Rattus norvegicus, UniProt P70536); experiment: PET imaging of the brain using a rat model; assay type: in vivo, Sprague–Dawley rats; settings: rats, 90 min ([18F]3) or 45 min ([11C]4) scan
T1 sequence (P70536 1-388): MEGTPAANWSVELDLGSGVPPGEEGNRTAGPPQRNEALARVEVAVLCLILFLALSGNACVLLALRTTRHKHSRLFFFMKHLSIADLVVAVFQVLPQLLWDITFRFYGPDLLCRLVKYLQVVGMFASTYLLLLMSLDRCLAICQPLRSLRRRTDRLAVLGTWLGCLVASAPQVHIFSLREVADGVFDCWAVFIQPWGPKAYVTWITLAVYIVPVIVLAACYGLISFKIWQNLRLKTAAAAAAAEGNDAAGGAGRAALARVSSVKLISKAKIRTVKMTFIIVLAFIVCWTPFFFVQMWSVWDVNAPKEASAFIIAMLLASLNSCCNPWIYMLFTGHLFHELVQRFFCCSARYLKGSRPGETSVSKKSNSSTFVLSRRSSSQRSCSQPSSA

Compound	in vivo stability of the radiolabel (thyroid / bone uptake over time) [1]	Biodistribution of radioactivity, Liver ([1]; 15 min)	Biodistribution of radioactivity, Liver ([1]; 30 min)	Biodistribution of radioactivity, Liver ([1]; 60 min)	Biodistribution of radioactivity, Liver ([1]; 120 min)	viability for in vivo PET imaging of brain OTR [2]
1-(4-(3,4-Dihydroquinolin-1(2H)-yl)piperidin-1-yl)-2-(2-(2-[^18F]fluoroethoxy)-4-((1-(methylsulfonyl)piperidin-4-yl)oxy)phenyl)ethanone [[^18F]3]	appeared to remain intact	1.81 ± 0.36 %ID/g	1.41 ± 0.17 %ID/g	0.98 ± 0.44 %ID/g	1.18 ± 0.18 %ID/g	not viable for in vivo PET imaging of the OTR of the CNS
CS(=O)(=O)N1CCC(Oc2ccc(CC(=O)N3CCC(N4C(=O)CCc5ccccc54)CC3)c(O[11CH3])c2)CC1 [[^11C]4, 1-(1-(2-(2-[^11C]methoxy-4-((1-(methylsulfonyl)piperidin-4-yl)oxy)phenyl)acetyl)piperidin-4-yl)-3,4-dihydroquin olin-2(1H)-one]						not viable for in vivo PET imaging of the OTR of the CNS
